In ChEMBL document CHEMBL5696442, “Discovery of type II inhibitors of TGFβ-activated kinase 1 (TAK1) and mitogen-activated protein kinase kinase kinase kinase 2 (MAP4K2)” (J Med Chem, 2015):
Activity calls are given as the source filed them. The rule behind the calls is not given here.

Columns and labels:
[1] = molecular target: Calcium/calmodulin-dependent protein kinase type II subunit alpha (Homo sapiens) (UniProt Q9UQM7); assay: Inhibition of CAMK2a K2 labeling site in human Huh-7 cells at 10 uM by KiNativ Profiling analysis relative to control; type: cell-based
Calcium/calmodulin-dependent protein kinase type II subunit alpha (Homo sapiens), sequence (Q9UQM7 whole entry): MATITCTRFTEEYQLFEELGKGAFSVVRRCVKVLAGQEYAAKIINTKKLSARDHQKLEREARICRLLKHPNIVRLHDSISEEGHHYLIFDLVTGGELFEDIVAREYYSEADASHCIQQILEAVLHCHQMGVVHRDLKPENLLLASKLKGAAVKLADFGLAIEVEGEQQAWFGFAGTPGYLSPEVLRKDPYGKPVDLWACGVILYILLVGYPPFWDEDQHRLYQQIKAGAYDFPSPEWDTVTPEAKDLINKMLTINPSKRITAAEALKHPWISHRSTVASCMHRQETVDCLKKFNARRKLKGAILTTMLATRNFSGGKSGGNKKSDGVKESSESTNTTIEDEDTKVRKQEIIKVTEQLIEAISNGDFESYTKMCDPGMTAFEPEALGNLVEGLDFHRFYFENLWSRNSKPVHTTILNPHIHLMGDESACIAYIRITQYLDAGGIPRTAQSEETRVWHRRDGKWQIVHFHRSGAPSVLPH

[2] = molecular target: Dual specificity protein kinase CLK4 (Homo sapiens) (UniProt Q9HAZ1); assay: Inhibition of CLK4 (unknown origin) at 10 uM by Ambit Kinomescan binding assay
[3] = molecular target: Cyclin-dependent kinase 11A (Homo sapiens) (UniProt Q9UQ88); assay: Inhibition of CDC2L2 (unknown origin) at 10 uM by Ambit Kinomescan binding assay relative to control; values are per cent of control
Cyclin-dependent kinase 11A (Homo sapiens), sequence (Q9UQ88 whole entry): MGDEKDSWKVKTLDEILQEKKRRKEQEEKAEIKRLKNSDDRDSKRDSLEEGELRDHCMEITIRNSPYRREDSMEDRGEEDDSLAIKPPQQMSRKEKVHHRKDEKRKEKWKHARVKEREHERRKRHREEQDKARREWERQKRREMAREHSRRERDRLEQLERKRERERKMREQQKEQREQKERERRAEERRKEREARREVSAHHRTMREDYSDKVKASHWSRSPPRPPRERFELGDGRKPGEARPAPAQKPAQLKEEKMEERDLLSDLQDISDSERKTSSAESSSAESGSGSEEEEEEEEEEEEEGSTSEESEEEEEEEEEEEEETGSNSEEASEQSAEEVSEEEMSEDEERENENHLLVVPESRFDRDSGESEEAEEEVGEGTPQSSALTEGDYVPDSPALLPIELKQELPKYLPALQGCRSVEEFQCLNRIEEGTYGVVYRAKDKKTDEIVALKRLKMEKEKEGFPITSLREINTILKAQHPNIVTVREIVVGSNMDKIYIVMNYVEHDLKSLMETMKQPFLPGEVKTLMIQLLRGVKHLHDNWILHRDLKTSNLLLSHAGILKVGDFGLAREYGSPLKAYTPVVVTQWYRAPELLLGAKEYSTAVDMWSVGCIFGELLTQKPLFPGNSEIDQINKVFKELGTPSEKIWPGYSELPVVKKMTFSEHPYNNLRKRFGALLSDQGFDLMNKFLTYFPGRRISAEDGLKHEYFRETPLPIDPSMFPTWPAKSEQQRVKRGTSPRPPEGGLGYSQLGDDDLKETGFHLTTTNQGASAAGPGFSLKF

[4] = molecular target: Dual specificity mitogen-activated protein kinase kinase; MEK1/2 (Homo sapiens) (UniProt P36507+Q02750); assay: Inhibition of MAP2K1/2 K2 labeling site in human Huh-7 cells at 10 uM by KiNativ Profiling analysis relative to control; type: cell-based
[5] = molecular target: T1, Mitogen-activated protein kinase kinase kinase 20 (Homo sapiens, UniProt Q9NYL2); assay: Inhibition of ZAK Lys1 labeling site in human A-375 cells at 0.5 uM by KiNativ Profiling analysis relative to control; type: cell-based
T1 sequence (Q9NYL2 2-800 limits assumed): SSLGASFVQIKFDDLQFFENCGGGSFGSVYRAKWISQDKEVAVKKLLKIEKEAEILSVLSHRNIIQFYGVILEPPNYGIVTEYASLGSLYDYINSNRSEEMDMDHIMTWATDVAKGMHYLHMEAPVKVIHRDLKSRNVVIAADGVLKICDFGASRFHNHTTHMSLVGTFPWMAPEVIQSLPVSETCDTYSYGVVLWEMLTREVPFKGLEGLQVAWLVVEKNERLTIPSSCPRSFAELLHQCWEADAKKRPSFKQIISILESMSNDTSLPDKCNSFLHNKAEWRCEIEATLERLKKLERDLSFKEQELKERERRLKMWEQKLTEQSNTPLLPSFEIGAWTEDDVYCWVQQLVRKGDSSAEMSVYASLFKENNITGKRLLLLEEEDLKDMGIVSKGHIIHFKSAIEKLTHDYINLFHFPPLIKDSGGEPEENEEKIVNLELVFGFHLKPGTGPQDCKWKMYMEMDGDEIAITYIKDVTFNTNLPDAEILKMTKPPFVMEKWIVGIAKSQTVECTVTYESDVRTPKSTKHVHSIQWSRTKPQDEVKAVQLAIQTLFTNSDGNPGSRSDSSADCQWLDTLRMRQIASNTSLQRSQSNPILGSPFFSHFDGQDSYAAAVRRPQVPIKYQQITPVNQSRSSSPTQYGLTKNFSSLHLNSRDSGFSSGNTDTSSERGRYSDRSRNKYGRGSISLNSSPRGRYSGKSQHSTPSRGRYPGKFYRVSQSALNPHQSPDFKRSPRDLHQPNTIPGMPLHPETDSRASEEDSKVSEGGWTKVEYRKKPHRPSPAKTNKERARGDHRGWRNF

[6] = system: Epidermal growth factor receptor (Homo sapiens), P00533 [L858R]; assay: Inhibition of EGFR L858R mutant (unknown origin) at 10 uM by Ambit Kinomescan binding assay relative to control
[7] = molecular target: T2, Serine/threonine-protein kinase STK11 (Homo sapiens) (UniProt Q15831); assay: Inhibition of LKB1 K2 labeling site in human Huh-7 cells at 10 uM by KiNativ Profiling analysis relative to control; type: cell-based
T2 sequence (whole entry): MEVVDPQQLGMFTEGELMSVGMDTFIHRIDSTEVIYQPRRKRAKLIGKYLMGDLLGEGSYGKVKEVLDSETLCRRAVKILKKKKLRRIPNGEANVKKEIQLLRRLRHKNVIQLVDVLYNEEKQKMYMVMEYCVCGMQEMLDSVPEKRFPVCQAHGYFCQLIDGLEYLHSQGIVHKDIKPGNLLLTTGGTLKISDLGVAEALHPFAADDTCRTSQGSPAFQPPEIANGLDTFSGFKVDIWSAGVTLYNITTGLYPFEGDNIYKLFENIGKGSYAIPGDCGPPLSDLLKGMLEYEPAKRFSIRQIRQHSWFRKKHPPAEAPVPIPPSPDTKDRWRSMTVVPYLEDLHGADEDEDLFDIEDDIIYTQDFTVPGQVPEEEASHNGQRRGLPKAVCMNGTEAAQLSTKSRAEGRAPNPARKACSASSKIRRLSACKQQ

[8] = molecular target: Misshapen-like kinase 1 (Homo sapiens) (UniProt Q8N4C8); assay: Inhibition of MINK (unknown origin) at 10 uM by Ambit Kinomescan binding assay
[9] = Inhibition of KHS1 Lys2 labeling site in human A-375 cells at 5 uM by KiNativ Profiling analysis relative to control; conditions: condition cancer
[10] = molecular target: Cyclin-dependent kinase 15 (Homo sapiens) (UniProt Q96Q40); assay: Inhibition of PFTAIRE2 (unknown origin) at 10 uM by Ambit Kinomescan binding assay relative to control
[11] = Inhibition of NEK6/7 K2 labeling site harbouring VMHRDIKPANVFITATGVVK in human Huh-7 cells at 1 uM by KiNativ Profiling analysis relative to control; conditions: condition cancer
[12] = molecular target: Serine/threonine-protein kinase MARK1 (Homo sapiens) (UniProt Q9P0L2); assay: Inhibition of MARK1 (unknown origin) at 10 uM by Ambit Kinomescan binding assay
[13] = molecular target: Tyrosine-protein kinase Fer (Homo sapiens, UniProt P16591); assay: Inhibition of FER (unknown origin) at 1 uM by Ambit Kinomescan binding assay relative to control; values are per cent of control
[14] = molecular target: Phosphatidylinositol 4-kinase alpha (Homo sapiens) (UniProt P42356); assay: Inhibition of PI4KA ATP labeling site in human A-375 cells at 0.05 uM by KiNativ Profiling analysis relative to control; type: cell-based
[15] = molecular target: eIF-2-alpha kinase GCN2 (Homo sapiens) (UniProt Q9P2K8); assay: Inhibition of GCN2 domain2 Lys2 labeling site in human A-375 cells at 0.5 uM by KiNativ Profiling analysis relative to control; type: cell-based
[16] = molecular target: Serine/threonine-protein kinase B-raf (Homo sapiens, UniProt P15056); assay: Inhibition of BRAF Lys2 labeling site in human A-375 cells at 0.5 uM by KiNativ Profiling analysis relative to control; type: cell-based
Serine/threonine-protein kinase B-raf, sequence (P15056 whole entry, the tested form may be a part): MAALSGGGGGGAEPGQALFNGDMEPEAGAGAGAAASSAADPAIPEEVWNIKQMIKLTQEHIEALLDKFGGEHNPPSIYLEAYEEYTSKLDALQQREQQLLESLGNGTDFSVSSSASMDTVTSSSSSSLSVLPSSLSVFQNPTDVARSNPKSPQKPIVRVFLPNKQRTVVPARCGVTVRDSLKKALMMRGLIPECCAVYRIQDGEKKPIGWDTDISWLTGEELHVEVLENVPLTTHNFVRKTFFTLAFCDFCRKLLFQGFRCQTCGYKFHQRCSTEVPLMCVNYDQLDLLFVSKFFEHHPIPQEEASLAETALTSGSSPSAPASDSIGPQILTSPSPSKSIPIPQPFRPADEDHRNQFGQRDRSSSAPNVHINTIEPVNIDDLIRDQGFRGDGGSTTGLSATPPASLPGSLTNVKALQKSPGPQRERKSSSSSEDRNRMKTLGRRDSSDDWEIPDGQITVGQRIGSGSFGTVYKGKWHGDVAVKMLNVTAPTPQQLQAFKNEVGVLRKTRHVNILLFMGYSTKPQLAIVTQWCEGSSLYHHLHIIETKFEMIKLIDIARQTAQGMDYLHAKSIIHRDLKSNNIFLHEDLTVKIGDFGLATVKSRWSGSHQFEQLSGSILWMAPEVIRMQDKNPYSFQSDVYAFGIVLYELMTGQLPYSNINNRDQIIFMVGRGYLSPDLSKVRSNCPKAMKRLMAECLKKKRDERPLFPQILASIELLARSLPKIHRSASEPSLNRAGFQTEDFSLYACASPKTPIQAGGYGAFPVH

[17] = molecular target: Ribosomal protein S6 kinase alpha-6 (Homo sapiens) (UniProt Q9UK32); assay: Inhibition of C-terminal RSK4 kinase domain 2 (unknown origin) at 1 uM by Ambit Kinomescan binding assay relative to control
[18] = molecular target: Serine/threonine-protein kinase PAK 3 (Homo sapiens) (UniProt O75914); assay: Inhibition of PAK3 (unknown origin) at 1 uM by Ambit Kinomescan binding assay relative to control; values are per cent of control
[19] = molecular target: Serine/threonine-protein kinase 38-like (Homo sapiens) (UniProt Q9Y2H1); assay: Inhibition of NDR2 Lys1 labeling site harbouring DTGHIYAMKILR in human A-375 cells at 5 uM by KiNativ Profiling analysis relative to control; type: cell-based
Serine/threonine-protein kinase 38-like (Homo sapiens), sequence (Q9Y2H1 2-464 limits assumed): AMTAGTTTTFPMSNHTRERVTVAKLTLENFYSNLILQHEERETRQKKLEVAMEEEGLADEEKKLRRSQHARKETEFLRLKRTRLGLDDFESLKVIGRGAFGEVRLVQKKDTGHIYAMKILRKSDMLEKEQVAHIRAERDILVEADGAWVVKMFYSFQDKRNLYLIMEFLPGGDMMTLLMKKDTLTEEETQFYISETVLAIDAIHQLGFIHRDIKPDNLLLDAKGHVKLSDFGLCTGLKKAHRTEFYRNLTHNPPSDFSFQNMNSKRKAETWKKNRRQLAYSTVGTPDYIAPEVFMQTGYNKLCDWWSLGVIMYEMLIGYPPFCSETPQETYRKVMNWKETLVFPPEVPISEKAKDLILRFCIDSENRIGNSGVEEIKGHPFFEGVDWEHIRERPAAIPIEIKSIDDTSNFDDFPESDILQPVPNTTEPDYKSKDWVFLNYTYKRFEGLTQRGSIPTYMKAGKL

[20] = molecular target: Angiopoietin-1 receptor (Homo sapiens) (UniProt Q02763); assay: Inhibition of TIE2 (unknown origin) at 1 uM by Ambit Kinomescan binding assay relative to control
[21] = molecular target: T2, Serine/threonine-protein kinase STK11 (Homo sapiens); assay: Inhibition of LKB1 Lys2 labeling site in human A-375 cells at 0.5 uM by KiNativ Profiling analysis relative to control; type: cell-based
[22] = molecular target: Calcium/calmodulin-dependent protein kinase type II subunit alpha (Homo sapiens) (UniProt Q9UQM7); assay: Inhibition of CaMK2a Lys2 labeling site in human Huh-7 cell lysate at 1 uM by KiNativ Profiling analysis relative to control; type: subcellular
[23] = molecular target: Calcium/calmodulin-dependent protein kinase type II subunit gamma (Homo sapiens) (UniProt Q13555); assay: Inhibition of CaMK2g Lys1 labeling site harbouring TSTQEYAAKIINTKK in human Huh-7 cells at 1 uM by KiNativ Profiling analysis relative to control; type: cell-based
[24] = molecular target: T1, Mitogen-activated protein kinase kinase kinase 20; assay: Inhibition of ZAK Lys1 labeling site in human Huh-7 cells at 1 uM by KiNativ Profiling analysis relative to control; type: cell-based
[25] = molecular target: Microtubule-associated serine/threonine-protein kinase 2 (Homo sapiens) (UniProt Q6P0Q8); assay: Inhibition of MAST2 Lys2 labeling site harbouring DLKPDNLLVTSMGHIK in human Huh-7 cells at 1 uM by KiNativ Profiling analysis relative to control; type: cell-based
Microtubule-associated serine/threonine-protein kinase 2 (Homo sapiens), sequence (Q6P0Q8 whole entry): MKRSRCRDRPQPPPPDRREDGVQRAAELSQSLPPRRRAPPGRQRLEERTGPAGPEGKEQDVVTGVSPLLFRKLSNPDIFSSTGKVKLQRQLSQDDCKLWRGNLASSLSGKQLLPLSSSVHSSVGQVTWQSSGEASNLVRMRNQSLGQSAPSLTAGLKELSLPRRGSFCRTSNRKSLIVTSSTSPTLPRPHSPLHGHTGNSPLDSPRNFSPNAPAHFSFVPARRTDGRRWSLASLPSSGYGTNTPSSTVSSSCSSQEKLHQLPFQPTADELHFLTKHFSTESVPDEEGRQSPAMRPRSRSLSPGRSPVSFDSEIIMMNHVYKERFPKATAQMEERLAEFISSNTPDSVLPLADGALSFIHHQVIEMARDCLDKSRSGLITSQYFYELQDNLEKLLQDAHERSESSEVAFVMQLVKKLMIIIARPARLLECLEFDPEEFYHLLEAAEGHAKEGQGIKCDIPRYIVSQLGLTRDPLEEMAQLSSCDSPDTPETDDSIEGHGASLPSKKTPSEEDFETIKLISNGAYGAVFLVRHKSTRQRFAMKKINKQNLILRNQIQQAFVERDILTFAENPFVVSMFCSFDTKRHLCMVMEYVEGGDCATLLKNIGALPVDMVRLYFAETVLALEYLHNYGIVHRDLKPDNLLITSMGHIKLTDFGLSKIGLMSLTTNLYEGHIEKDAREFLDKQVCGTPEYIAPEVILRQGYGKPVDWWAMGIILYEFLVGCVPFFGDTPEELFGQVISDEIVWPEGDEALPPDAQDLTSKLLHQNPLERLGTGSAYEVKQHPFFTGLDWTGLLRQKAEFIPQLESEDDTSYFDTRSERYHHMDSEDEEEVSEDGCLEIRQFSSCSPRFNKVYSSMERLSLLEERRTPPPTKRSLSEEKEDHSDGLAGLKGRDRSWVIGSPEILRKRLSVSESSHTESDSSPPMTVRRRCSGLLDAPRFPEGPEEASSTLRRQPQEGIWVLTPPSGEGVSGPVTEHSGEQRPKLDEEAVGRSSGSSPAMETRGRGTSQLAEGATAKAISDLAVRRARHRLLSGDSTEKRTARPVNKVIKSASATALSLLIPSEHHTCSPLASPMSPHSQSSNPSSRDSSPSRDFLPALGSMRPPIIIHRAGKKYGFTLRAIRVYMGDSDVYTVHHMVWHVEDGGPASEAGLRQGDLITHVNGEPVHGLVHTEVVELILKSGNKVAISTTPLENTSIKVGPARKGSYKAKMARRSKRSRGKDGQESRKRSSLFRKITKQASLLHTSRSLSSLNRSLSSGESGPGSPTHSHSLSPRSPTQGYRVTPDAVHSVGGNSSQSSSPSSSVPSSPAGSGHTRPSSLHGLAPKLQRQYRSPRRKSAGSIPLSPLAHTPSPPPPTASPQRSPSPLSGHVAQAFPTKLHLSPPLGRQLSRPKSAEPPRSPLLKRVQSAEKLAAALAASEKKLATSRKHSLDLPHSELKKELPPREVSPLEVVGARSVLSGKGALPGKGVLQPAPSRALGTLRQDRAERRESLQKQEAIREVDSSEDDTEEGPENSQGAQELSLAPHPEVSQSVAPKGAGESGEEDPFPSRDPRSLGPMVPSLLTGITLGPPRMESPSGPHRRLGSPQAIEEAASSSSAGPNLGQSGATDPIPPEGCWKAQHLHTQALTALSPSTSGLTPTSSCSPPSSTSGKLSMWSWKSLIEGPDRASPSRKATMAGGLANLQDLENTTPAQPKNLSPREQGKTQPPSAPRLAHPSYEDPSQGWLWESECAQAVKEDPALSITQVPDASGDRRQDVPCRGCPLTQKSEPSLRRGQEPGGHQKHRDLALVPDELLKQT

[26] = molecular target: 5'-AMP-activated protein kinase catalytic subunit alpha-2 (Homo sapiens) (UniProt P54646); assay: Inhibition of AMPKa2 Lys2 labeling site in human Huh-7 cell lysate at 1 uM by KiNativ Profiling analysis relative to control; type: subcellular
[27] = molecular target: Cyclin-dependent kinase 11B (Homo sapiens) (UniProt P21127); assay: Inhibition of CDK11 Lys2 labeling site in human Huh-7 cells at 1 uM by KiNativ Profiling analysis relative to control; type: cell-based

CCN1CCN(Cc2ccc(NC(=O)c3ccc(C)c(Oc4ccnc5[nH]ccc45)c3)cc2C(F)(F)F)CC1
inhibition [1]: 6.2% | inhibition [2]: inactive | percent of control [3]: 0.05% | inhibition [4]: 14.4% | inhibition [5]: 93% | inhibition [6]: 14% | inhibition [7]: 11.6% | inhibition [8]: inactive | inhibition at 5 µM [9]: 42.8% | inhibition [10]: 6% | inhibition at 1 µM [11]: -15.7% | inhibition [12]: inactive

CCN1CCN(Cc2ccc(NC(=O)c3ccc(C)c(/C=C/c4cnc5[nH]ccc5c4OC)c3)cc2C(F)(F)F)CC1
residual activity [13]: 21% | inhibition [14]: 0.8% | inhibition [15]: 44.6% | inhibition [16]: 58.7% | inhibition [17]: 50% | residual activity [18]: 66% | inhibition [19]: 20.7% | inhibition [20]: 0% | inhibition [21]: 32.2%

CNc1cc(Oc2cc(C(=O)Nc3cc(N4CCN(C)CC4)cc(C(F)(F)F)c3)ccc2C)ncn1
inhibition [22]: 0.7% | inhibition [23]: 31.8% | inhibition [24]: 13.8% | inhibition [25]: 30.2% | inhibition [26]: 0.5% | inhibition [27]: 25.8%
